Laboratory results from article PMC12748989 (Nature Communications, 2025).

Tests used:
PBMC = details: 12.5 µM

| Structure (SMILES) | Average (percentage cell inhibition), Dmastoparan MDA-MB231 12.5uM (MDA-MB-231 cells) | Average (percentage cell inhibition), Mastoparan PBMC (PBMC) |
| --- | --- | --- |
| CC[C@H](C)[C@H](N)C(=O)N[C@@H](CC(N)=O)C(=O)N[C@@H](CC(C)C)C(=O)N[C@@H](CCCCN)C(=O)N[C@@H](C)C(=O)N[C@@H](CC(C)C)C(=O)N[C@@H](C)C(=O)N[C@@H](C)C(=O)N[C@@H](CC(C)C)C(=O)N[C@@H](C)C(=O)N[C@@H](CCCCN)C(=O)NCC(=O)N[C@H](C(=O)N[C@@H](CC(C)C)C(N)=O)[C@@H](C)CC [G12] | 17.8169% | 13.7945% |
| CC[C@H](C)[C@H](N)C(=O)N[C@@H](CC(N)=O)C(=O)N[C@@H](CC(C)C)C(=O)N[C@@H](CCCCN)C(=O)N[C@@H](C)C(=O)N[C@@H](CC(C)C)C(=O)N[C@@H](C)C(=O)N[C@@H](C)C(=O)N[C@@H](CC(C)C)C(=O)N[C@@H](C)C(=O)N[C@@H](CCC(=O)O)C(=O)N[C@@H](CCCCN)C(=O)N[C@H](C(=O)N[C@@H](CC(C)C)C(N)=O)[C@@H](C)CC [E11] | 19.6815% | 5.959% |
| CC[C@H](C)[C@H](N)C(=O)N[C@@H](CC(N)=O)C(=O)N[C@@H](CC(C)C)C(=O)N[C@@H](CCCCN)C(=O)N[C@@H](C)C(=O)N[C@@H](CC(C)C)C(=O)N[C@@H](C)C(=O)N[C@@H](C)C(=O)N[C@@H](CC(C)C)C(=O)N[C@@H](C)C(=O)N[C@@H](CCCCN)C(=O)N[C@@H](CCCCN)C(=O)N[C@H](C(=O)N[C@H](C(N)=O)[C@@H](C)O)[C@@H](C)CC [T14] | 36.2451% | 6.663% |
| CC[C@H](C)[C@H](N)C(=O)N[C@@H](CC(N)=O)C(=O)N[C@@H](CC(C)C)C(=O)N[C@@H](CCCCN)C(=O)N[C@@H](C)C(=O)N[C@@H](CC(C)C)C(=O)N[C@@H](CC(C)C)C(=O)N[C@@H](C)C(=O)N[C@@H](CC(C)C)C(=O)N[C@@H](C)C(=O)N[C@@H](CCCCN)C(=O)N[C@@H](CCCCN)C(=O)N[C@H](C(=O)N[C@@H](CC(C)C)C(N)=O)[C@@H](C)CC [L7] | 74.1173% | 35.4322% |
| CC[C@H](C)[C@H](N)C(=O)N[C@@H](CC(N)=O)C(=O)N[C@@H](CC(C)C)C(=O)N[C@@H](CCCCN)C(=O)N[C@@H](C)C(=O)N[C@@H](CC(C)C)C(=O)N[C@@H](Cc1ccc(O)cc1)C(=O)N[C@@H](C)C(=O)N[C@@H](CC(C)C)C(=O)N[C@@H](C)C(=O)N[C@@H](CCCCN)C(=O)N[C@@H](CCCCN)C(=O)N[C@H](C(=O)N[C@@H](CC(C)C)C(N)=O)[C@@H](C)CC [Y7] | 74.0703% | 16.9599% |
| CC[C@H](C)[C@H](N)C(=O)N[C@@H](CC(N)=O)C(=O)N[C@@H](CC(C)C)C(=O)N[C@@H](CCCCN)C(=O)N[C@@H](C)C(=O)N[C@@H](CC(C)C)C(=O)N[C@@H](C)C(=O)N[C@@H](C)C(=O)N[C@@H](CC(C)C)C(=O)N[C@@H](C)C(=O)N[C@@H](CCCCN)C(=O)N[C@@H](CCCCN)C(=O)N[C@H](C(=O)NCC(N)=O)[C@@H](C)CC [G14] | 28.3643% | 3.069% |
| CC[C@H](C)[C@H](N)C(=O)N[C@@H](CC(N)=O)C(=O)N[C@@H](CCCNC(=N)N)C(=O)N[C@@H](CCCCN)C(=O)N[C@@H](C)C(=O)N[C@@H](CC(C)C)C(=O)N[C@@H](C)C(=O)N[C@@H](C)C(=O)N[C@@H](CC(C)C)C(=O)N[C@@H](C)C(=O)N[C@@H](CCCCN)C(=O)N[C@@H](CCCCN)C(=O)N[C@H](C(=O)N[C@@H](CC(C)C)C(N)=O)[C@@H](C)CC [R3] | 24.609% | -2.846% |
| CC[C@H](C)[C@H](N)C(=O)N[C@@H](CC(N)=O)C(=O)N[C@@H](CC(C)C)C(=O)N[C@@H](CCCCN)C(=O)N[C@@H](C)C(=O)N[C@@H](CC(C)C)C(=O)N[C@@H](C)C(=O)N[C@@H](C)C(=O)N[C@@H](CC(C)C)C(=O)N[C@@H](C)C(=O)N[C@H](C(=O)N[C@@H](CCCCN)C(=O)N[C@H](C(=O)N[C@@H](CC(C)C)C(N)=O)[C@@H](C)CC)[C@@H](C)CC [I11] | 36.5354% | 5.295% |
| CC[C@H](C)[C@H](N)C(=O)N[C@@H](CC(N)=O)C(=O)N[C@@H](CC(C)C)C(=O)N[C@H](C(=O)N[C@@H](C)C(=O)N[C@@H](CC(C)C)C(=O)N[C@@H](C)C(=O)N[C@@H](C)C(=O)N[C@@H](CC(C)C)C(=O)N[C@@H](C)C(=O)N[C@@H](CCCCN)C(=O)N[C@@H](CCCCN)C(=O)N[C@H](C(=O)N[C@@H](CC(C)C)C(N)=O)[C@@H](C)CC)C(C)C [V4] | 32.9047% | 3.317% |
| CC[C@H](C)[C@H](N)C(=O)N[C@@H](CC(N)=O)C(=O)N[C@@H](CC(C)C)C(=O)N[C@@H](CCCCN)C(=O)N[C@@H](C)C(=O)N[C@@H](CC(C)C)C(=O)N[C@@H](C)C(=O)N[C@@H](C)C(=O)N[C@@H](CC(C)C)C(=O)N[C@@H](C)C(=O)N[C@@H](CCCCN)C(=O)N[C@@H](CCCCN)C(=O)N[C@@H](CO)C(=O)N[C@@H](CC(C)C)C(N)=O [S13] | 39.6113% | -6.27% |
| CC[C@H](C)[C@H](N)C(=O)N[C@@H](CC(N)=O)C(=O)N[C@H](C(=O)N[C@@H](CCCCN)C(=O)N[C@@H](C)C(=O)N[C@@H](CC(C)C)C(=O)N[C@@H](C)C(=O)N[C@@H](C)C(=O)N[C@@H](CC(C)C)C(=O)N[C@@H](C)C(=O)N[C@@H](CCCCN)C(=O)N[C@@H](CCCCN)C(=O)N[C@H](C(=O)N[C@@H](CC(C)C)C(N)=O)[C@@H](C)CC)[C@@H](C)O [T3] | 21.7833% | 8.955% |
| CC[C@H](C)[C@H](NC(=O)[C@H](CCCCN)NC(=O)[C@H](CCCCN)NC(=O)[C@H](C)NC(=O)[C@H](CC(C)C)NC(=O)[C@H](C)NC(=O)[C@H](C)NC(=O)[C@H](CC(C)C)NC(=O)[C@H](C)NC(=O)[C@H](CCCCN)NC(=O)[C@H](CC(C)C)NC(=O)[C@H](CC(N)=O)NC(=O)[C@@H](N)[C@@H](C)O)C(=O)N[C@@H](CC(C)C)C(N)=O [T1] | 37.2219% | 14.7113% |
| CC[C@H](C)[C@H](N)C(=O)N[C@@H](CC(N)=O)C(=O)N[C@@H](CC(C)C)C(=O)N[C@@H](CCCCN)C(=O)N[C@H](C(=O)N[C@@H](CC(C)C)C(=O)N[C@@H](C)C(=O)N[C@@H](C)C(=O)N[C@@H](CC(C)C)C(=O)N[C@@H](C)C(=O)N[C@@H](CCCCN)C(=O)N[C@@H](CCCCN)C(=O)N[C@H](C(=O)N[C@@H](CC(C)C)C(N)=O)[C@@H](C)CC)[C@@H](C)O [T5] | 39.042% | 12.9165% |
| CC[C@H](C)[C@H](N)C(=O)N[C@@H](CC(N)=O)C(=O)N[C@@H](CC(C)C)C(=O)N[C@@H](CCCCN)C(=O)N[C@@H](Cc1c[nH]cn1)C(=O)N[C@@H](CC(C)C)C(=O)N[C@@H](C)C(=O)N[C@@H](C)C(=O)N[C@@H](CC(C)C)C(=O)N[C@@H](C)C(=O)N[C@@H](CCCCN)C(=O)N[C@@H](CCCCN)C(=O)N[C@H](C(=O)N[C@@H](CC(C)C)C(N)=O)[C@@H](C)CC [H5] | 26.5106% | 3.516% |
| CC[C@H](C)[C@H](N)C(=O)N[C@@H](CC(N)=O)C(=O)N[C@@H](CC(C)C)C(=O)N[C@@H](CCCCN)C(=O)N[C@@H](C)C(=O)N[C@@H](CC(C)C)C(=O)N[C@@H](C)C(=O)N[C@@H](C)C(=O)N[C@@H](CC(C)C)C(=O)N[C@@H](C)C(=O)N[C@@H](CCCCN)C(=O)N[C@@H](CCCCN)C(=O)N[C@H](C(=O)N[C@@H](Cc1c[nH]cn1)C(N)=O)[C@@H](C)CC [H14] | 14.7055% | -11.4515% |
| CC[C@H](C)[C@H](N)C(=O)N[C@@H](CC(N)=O)C(=O)N[C@@H](CC(C)C)C(=O)N[C@@H](CCCCN)C(=O)N[C@@H](CCC(=O)O)C(=O)N[C@@H](CC(C)C)C(=O)N[C@@H](C)C(=O)N[C@@H](C)C(=O)N[C@@H](CC(C)C)C(=O)N[C@@H](C)C(=O)N[C@@H](CCCCN)C(=O)N[C@@H](CCCCN)C(=O)N[C@H](C(=O)N[C@@H](CC(C)C)C(N)=O)[C@@H](C)CC [E5] | 15.4865% | 3.135% |
| CC[C@H](C)[C@H](N)C(=O)N[C@@H](CC(N)=O)C(=O)N[C@@H](CC(C)C)C(=O)N[C@@H](CCCCN)C(=O)N[C@@H](CC(C)C)C(=O)N[C@@H](CC(C)C)C(=O)N[C@@H](C)C(=O)N[C@@H](C)C(=O)N[C@@H](CC(C)C)C(=O)N[C@@H](C)C(=O)N[C@@H](CCCCN)C(=O)N[C@@H](CCCCN)C(=O)N[C@H](C(=O)N[C@@H](CC(C)C)C(N)=O)[C@@H](C)CC [L5] | 46.6396% | 25.5295% |
| CC[C@H](C)[C@H](N)C(=O)N[C@@H](CC(N)=O)C(=O)N[C@@H](CC(C)C)C(=O)N[C@@H](Cc1c[nH]cn1)C(=O)N[C@@H](C)C(=O)N[C@@H](CC(C)C)C(=O)N[C@@H](C)C(=O)N[C@@H](C)C(=O)N[C@@H](CC(C)C)C(=O)N[C@@H](C)C(=O)N[C@@H](CCCCN)C(=O)N[C@@H](CCCCN)C(=O)N[C@H](C(=O)N[C@@H](CC(C)C)C(N)=O)[C@@H](C)CC [H4] | 21.387% | -2.6725% |
